Experiment: GC-MS headspace release profile of Tropical Fruit perfume in shampoo, 1/100 dilution in water
Type: physicochemical
Experimental: A 10 gram sample of formulation and fragrance was added to an empty 1000 ml pyrex beaker. This beaker was then filled with 1000 ml of 120 F tap water. Beaker with diluted shampoo sample was then immediately placed into a semi-enclosed plexiglass chamber.
Headspace Sampling: Once beaker was placed into chamber a Carboxan SPME field fiber was held at the top-side opening of the chamber over the beaker containing the sample. […] […] Top of plexiglass chamber was held open for entire 5 minutes of headspace sampling.

Compound | GC Abundance (headspace at 20 seconds) | GC Abundance (headspace at 30 seconds) | GC Abundance (headspace at 40 seconds) | GC Abundance (headspace at 50 seconds) | GC Abundance (headspace at 5 seconds, Tropical Fruit perfume 1% in shampoo) | GC Abundance (headspace at 10 seconds)
CC/C=C\CCO [CIS-3-HEXEN-1-OL] | 14000 | 14000 | 14000 | 14000 |  | 
C=CCOC(=O)CCCCCC [ALLYL HEPTOATE] | 4000 | 10000 | 12000 | 12000 |  | 
C=C(C)[C@H]1CC=C(C)CC1 [d-LIMONENE, d-1-Methyl-4-isopropenyl-1-cyclohexene] | 7000 | 7000 | 5000 | 4000 | 7000 | 7000
CC(=O)OC1CCC(C(C)(C)C)CC1 (stereo not shown) [VERTENEX HC] |  | 2000 | 8000 | 10000 |  | 
CC(=O)OC(C)(C)Cc1ccccc1 [DIMETHYL BENZYL CARBINYL ACETATE] |  | 2000 | 8000 | 8000 |  | 
VERTOFIX COEUR |  |  |  | 50 |  | 
CC(C)CC1CC(C)(O)CCO1 (stereo not shown) [FLOROL] |  |  | 10000 | 15000 |  | 
OCc1ccccc1 [BENZYL ALCOHOL] |  |  | 50 | 100 |  | 
CC/C(=C\CC1CC=C(C)C1(C)C)CO (stereo not shown) [BACDANOL] |  |  | 100 | 5000 |  | 
CCC=C(C)C(O)CCCCC (stereo not shown) [UNDECAVERTOL, 4-Methyl-3-decen-5-ol] |  |  | 10000 | 10000 |  | 
OXANONE CRYSTALS |  |  |  | 70 |  | 
CC(C=O)Cc1ccc2c(c1)OCO2 (stereo not shown) [HELIONAL] |  |  | 500 | 5000 |  | 
COC(=O)c1c(C)cc(O)c(C)c1O [METHYL ATRATATE] |  |  |  | 50 |  | 
CCC(C)(O)CCC=C(C)C (stereo not shown) [DIHYDROLINALOOL] | 3000 | 3000 | 3000 | 3000 |  | 
CC1(C)CCC[C@]2(C)[C@H]3CCO[C@]3(C)CC[C@@H]12 [AMBROXAN] |  |  |  | 1000 |  | 
CCCCCC1CCC(=O)O1 (stereo not shown) [ALDEHYDE C-18] | 2000 | 2000 | 4000 | 4000 |  | 
O=C1CCCCCCCCCCCCCCO1 [EXALTOLIDE TOTAL] |  |  |  | 50 |  | 
CC(C)=CCCC(C)CCCC(C)C=O (stereo not shown) [ADOXAL, 2,6,10-Trimethyl-9-undecenal] |  |  | 300 | 3000 |  | 
C=CC(C)CCCC(C)(C)O (stereo not shown) [DIHYDROMYRCENOL] | 15000 | 15000 | 15000 | 15000 |  | 500
Cc1ccc2c(c1)OCC(=O)CO2 [CALONE] |  |  |  | 1000 |  | 
CC(=O)OCc1ccccc1 [BENZYL ACETATE] | 12000 | 17000 | 18000 | 18000 |  | 
CC1=CCC(CCC(C)C(C)O)C1(C)C (stereo not shown) [SANDALORE] |  |  |  | 2000 |  | 
CC(C)c1cccc(C(C)CC=O)c1 (stereo not shown) [FLORHYDRAL] |  |  | 9000 | 10000 |  | 
O=C1CCCCCCCCCCCC(=O)OCCO1 [ETHYLENE BRASSYLATE] |  |  |  | 20 |  | 
CC/C=C\CCOC(=O)OC [LIFFAROME] | 3000 | 3000 | 3000 | 3000 |  | 
CC1OC(C)C2Cc3ccccc3C2O1 (stereo not shown) [MAGNOLAN/CORPS 719] |  |  | 1000 | 3000 |  | 
CC(C)=CCCC(C)CCO (stereo not shown) [CITRONELLOL AJ, FCC, CITRONELLOL] | 7000 | 7000 | 7000 | 7000 |  | 
CC(=O)OC(C)(C)C1CC=C(C)CC1 (stereo not shown) [TERPINYL ACETATE] |  | 1000 | 9000 | 9000 |  | 
CCC(=O)OCc1ccccc1 [BENZYL PROPIONATE] | 2000 | 6000 | 6000 | 6000 |  | 
